Reference: the supplement of paper PMC10307832

Legend:
Assay in all cases: relative viability (nuclei count vs DMSO), 5 days (fraction); higher = more cells survive
[1] = system: NCI-H1975
Summary of the method: (§1)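 For relative viability, nuclei counts in treated wells were divided by those in vehicle wells. Lung cancer cell lines had been pin-tool dosed in 1536-well plates the day after seeding and cultured for 5 days, then fixed and stained in one step (final 0.05% Triton X-100, 1% formaldehyde, 1 ug/ml Hoechst) and imaged at 4×. Doses were one drug alone or a fixed anchor-drug dose plus five library-drug doses (not always all listed) in √10 steps, and values are duplicate-plate medians.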

[2] = system: COR-L 105
Summary of the method: as §1

[3] = system: NCI-H1993
Summary of the method: as §1

[4] = system: NCI-H1944
Summary of the method: as §1

[5] = system: HCC-78
Summary of the method: as §1

[6] = system: SK-LU-1
Summary of the method: as §1

[7] = system: NCI-H1734
Summary of the method: as §1

[8] = system: LU99A
Summary of the method: as §1

[9] = system: NCI-H596
Summary of the method: as §1

[10] = system: NCI-H1650
Summary of the method: as §1

[11] = system: HCC-366
Summary of the method: as §1

[12] = system: LC-2-ad
Summary of the method: as §1

[13] = system: EKVX
Summary of the method: as §1

[14] = system: 201T
Summary of the method: as §1

[15] = system: BEN
Summary of the method: as §1

[16] = system: NCI-H3122
Summary of the method: as §1

[17] = system: HCC-15
Summary of the method: as §1

[18] = system: COR-L23
Summary of the method: as §1

[19] = system: HCC-827
Summary of the method: as §1

[20] = system: NCI-H1755
Summary of the method: as §1

[21] = system: HARA
Summary of the method: as §1

[22] = system: LXF-289
Summary of the method: as §1

[23] = system: RERF-LC-KJ
Summary of the method: as §1

O=c1[nH]c2ccccc2n1C1CCN(CCCC(c2ccc(F)cc2)c2ccc(F)cc2)CC1 [Pimozide] + Nc1nc2[nH]cc(CCc3ccc(C(=O)N[C@@H](CCC(=O)O)C(=O)O)cc3)c2c(=O)[nH]1 [Pemetrexed] (partner 0.2 µM)
relative viability ([1]; first compound 0.08 µM): 0.309
relative viability ([1]; first compound 0.253 µM): 0.261
relative viability ([1]; first compound 0.8 µM): 0.305
relative viability ([1]; first compound 2.53 µM): 0.28
relative viability ([1]; first compound 8 µM): 0.283
relative viability ([2]; first compound 0.08 µM): 0.963
relative viability ([2]; first compound 0.253 µM): 1.11
relative viability ([2]; first compound 0.8 µM): 1.07
relative viability ([2]; first compound 2.53 µM): 1.2
relative viability ([2]; first compound 8 µM): 0.954
relative viability ([3]; first compound 0.08 µM): 0.487
relative viability ([3]; first compound 0.253 µM): 0.548
relative viability ([3]; first compound 0.8 µM): 0.512
relative viability ([3]; first compound 2.53 µM): 0.482
relative viability ([3]; first compound 8 µM): 0.501
relative viability ([4]; first compound 0.08 µM): 0.68
relative viability ([4]; first compound 2.53 µM): 0.466
relative viability ([4]; first compound 8 µM): 0.512
relative viability ([5]; first compound 0.08 µM): 0.911
relative viability ([5]; first compound 0.8 µM): 0.91
relative viability ([5]; first compound 2.53 µM): 0.872
relative viability ([5]; first compound 8 µM): 0.87
relative viability ([6]; first compound 0.08 µM): 1.05
relative viability ([6]; first compound 0.253 µM): 0.991
relative viability ([6]; first compound 0.8 µM): 0.897
relative viability ([6]; first compound 2.53 µM): 0.853
relative viability ([6]; first compound 8 µM): 0.817
relative viability ([7]; first compound 0.08 µM): 0.401
relative viability ([7]; first compound 0.253 µM): 0.436
relative viability ([7]; first compound 0.8 µM): 0.401
relative viability ([7]; first compound 2.53 µM): 0.416
relative viability ([7]; first compound 8 µM): 0.434
relative viability ([8]; first compound 0.08 µM): 0.277
relative viability ([8]; first compound 0.8 µM): 0.179
relative viability ([8]; first compound 2.53 µM): 0.185
relative viability ([8]; first compound 8 µM): 0.191
relative viability ([9]; first compound 0.08 µM): 0.538
relative viability ([9]; first compound 0.253 µM): 0.487
relative viability ([9]; first compound 0.8 µM): 0.534
relative viability ([9]; first compound 2.53 µM): 0.436
relative viability ([9]; first compound 8 µM): 0.479
relative viability ([10]; first compound 0.08 µM): 0.338
relative viability ([10]; first compound 0.253 µM): 0.341
relative viability ([10]; first compound 0.8 µM): 0.326
relative viability ([10]; first compound 2.53 µM): 0.356
relative viability ([10]; first compound 8 µM): 0.408
relative viability ([11]; first compound 0.08 µM): 0.166
relative viability ([11]; first compound 0.253 µM): 0.173
relative viability ([11]; first compound 0.8 µM): 0.12
relative viability ([11]; first compound 2.53 µM): 0.152
relative viability ([11]; first compound 8 µM): 0.189
relative viability ([12]; first compound 0.08 µM): 0.275
relative viability ([12]; first compound 0.253 µM): 0.288
relative viability ([12]; first compound 0.8 µM): 0.259
relative viability ([12]; first compound 2.53 µM): 0.265
relative viability ([12]; first compound 8 µM): 0.254
relative viability ([13]; first compound 0.253 µM): 0.336
relative viability ([13]; first compound 0.8 µM): 0.362
relative viability ([13]; first compound 2.53 µM): 0.397
relative viability ([13]; first compound 8 µM): 0.412
relative viability ([14]; first compound 0.08 µM): 0.31
relative viability ([14]; first compound 0.253 µM): 0.334
relative viability ([14]; first compound 0.8 µM): 0.332
relative viability ([14]; first compound 2.53 µM): 0.312
relative viability ([14]; first compound 8 µM): 0.276
relative viability ([15]; first compound 0.08 µM): 0.856
relative viability ([15]; first compound 0.253 µM): 0.689
relative viability ([15]; first compound 0.8 µM): 0.766
relative viability ([15]; first compound 2.53 µM): 0.708
relative viability ([15]; first compound 8 µM): 0.837
relative viability ([16]; first compound 0.08 µM): 0.238
relative viability ([16]; first compound 0.253 µM): 0.206
relative viability ([16]; first compound 0.8 µM): 0.178
relative viability ([16]; first compound 2.53 µM): 0.195
relative viability ([16]; first compound 8 µM): 0.2
relative viability ([17]; first compound 0.08 µM): 0.229
relative viability ([17]; first compound 0.253 µM): 0.226
relative viability ([17]; first compound 0.8 µM): 0.221
relative viability ([17]; first compound 2.53 µM): 0.213
relative viability ([17]; first compound 8 µM): 0.205
relative viability ([18]; first compound 0.08 µM): 0.2
relative viability ([18]; first compound 0.253 µM): 0.192
relative viability ([18]; first compound 0.8 µM): 0.19
relative viability ([18]; first compound 2.53 µM): 0.192
relative viability ([18]; first compound 8 µM): 0.192
relative viability ([19]; first compound 0.253 µM): 0.228
relative viability ([19]; first compound 0.8 µM): 0.258
relative viability ([19]; first compound 2.53 µM): 0.289
relative viability ([19]; first compound 8 µM): 0.254
relative viability ([20]; first compound 0.08 µM): 0.707
relative viability ([20]; first compound 0.253 µM): 0.423
relative viability ([20]; first compound 0.8 µM): 0.516
relative viability ([20]; first compound 2.53 µM): 0.389
relative viability ([20]; first compound 8 µM): 0.393
relative viability ([21]; first compound 0.08 µM): 0.245
relative viability ([21]; first compound 0.253 µM): 0.262
relative viability ([21]; first compound 0.8 µM): 0.241
relative viability ([21]; first compound 2.53 µM): 0.282
relative viability ([21]; first compound 8 µM): 0.198
relative viability ([22]; first compound 0.08 µM): 0.859
relative viability ([22]; first compound 0.253 µM): 0.873
relative viability ([22]; first compound 0.8 µM): 0.859
relative viability ([22]; first compound 2.53 µM): 0.869
relative viability ([22]; first compound 8 µM): 0.874
relative viability ([23]; first compound 0.08 µM): 0.452
relative viability ([23]; first compound 0.253 µM): 0.47
relative viability ([23]; first compound 0.8 µM): 0.466
relative viability ([23]; first compound 2.53 µM): 0.347
relative viability ([23]; first compound 8 µM): 0.422
